How the values were obtained:
BT142 cells = test: Cytotoxicity assay, LDL-supplemented sphere culture, low-grade glioma line (ATP); type: cell-based; conditions: 1 µM; 7 days; LDL 5 µg/mL; BT142 (IDH1 mutant-type, R132H/-)
Procedure: U-87 cells (IDH1 wild-type) and BT142 cells derived from low-grade glioma (IDH1 mutant-type, R132H/-) were cultured for 7 days in LDL-supplemented sphere medium in the presence or absence of Compound 1 (1 µM). The LDL concentration was 5 µg/mL. After incubation, intracellular ATP levels were quantified as an indicator of cell viability, and cytotoxicity was compared between conditions.

B16 cells [1] = test: In vivo efficacy, combination with ipilimumab, B16 tumors; parameters: species or system C57BL/6J mice; conditions: Compound 1 3 mg/kg or 10 mg/kg once daily + ipilimumab 5 mg/kg once weekly; B16, subcutaneous
Procedure: (§1) B16 cells (3 x 10^5) were subcutaneously implanted into C57BL/6J mice (n = 6) to establish tumors. On day 12 after implantation, administration was initiated with Compound 1 at 3 mg/kg or 10 mg/kg (once daily) and ipilimumab (an anti-CTLA-4 antibody) at 5 mg/kg (once weekly), and the efficacy of each monotherapy and the combination therapy was compared.
(§2) Tumor volume was calculated using the following formula based on the short and long diameters of the tumor measured with digital calipers (Mitutoyo). [formula]
(§3) The antitumor effect was evaluated by comparing the vehicle-treated control group with the test substance-treated group, and calculating T/C using the following formula. [formula]

B16 cells [2] = test: Efficacy in anti-PD-1 antibody-resistant in vivo model; parameters: species or system C57BL/6J mice; conditions: 10 mg/kg, once daily; B16 intradermal; versus nivolumab 5 mg/kg once weekly
Procedure: B16 cells (5 x 10^5 cells; obtained from the JCRB Cell Bank) were intradermally implanted into C57BL/6J mice to establish tumors. On day 12 after implantation, administration of Compound 1 (10 mg/kg, once daily) or an anti-PD-1 antibody (nivolumab, 5 mg/kg, once weekly) was initiated, and the efficacy of each monotherapy group was compared with that of the control group.

[3] = system: recurrent malignant glioma classified as WHO grade III or IV; test: Phase 1 clinical trial: preliminary antitumor activity (RANO criteria); type: in vivo, human
Procedure: Each treatment cycle was defined as 28 days, during which safety and treatment response were evaluated. Administration to each subject was continued until unacceptable toxicity occurred, consent was withdrawn, the subject was lost to follow-up, or discontinuation was determined by the investigator and/or the sponsor.

MC38 cells = test: In vivo efficacy, combination with ipilimumab, MC38 tumors; parameters: species or system C57BL/6J mice; conditions: Compound 1 3 mg/kg or 30 mg/kg once daily + ipilimumab 5 mg/kg once weekly; MC38, subcutaneous
Procedure: as §1, with “MC38 cells” for “B16 cells”, “or 30” for “or 10”
as §2, §3

[4] = system: luciferase-expressing U-87 cells; test: In vivo efficacy, combination with bevacizumab, orthotopic brain tumor (IVIS imaging); conditions: Compound 1 10 mg/kg twice daily (once daily from day 30) + bevacizumab 1 mg/kg twice weekly; brain tumors in immunodeficient mice
Procedure: Luciferase-expressing U-87 cells, in which the luminescent enzyme luciferase was forcibly expressed, were established (obtained from ATCC (American Type Culture Collection)). 1 x 10^6 of these cells were implanted into the brains of immunodeficient mice to establish brain tumors. On day 18 after tumor cell implantation, administration was initiated with Compound 1 at 10 mg/kg (twice daily) and bevacizumab at 1 mg/kg (twice weekly). On day 30, the dosing frequency of Compound 1 was reduced to once daily. The efficacy of each monotherapy and the combination therapy was evaluated by quantifying orthotopic tumor progression using an IVIS Imaging System and comparing the results.

[5] = system: IDH1 R132H mutant U-87 cells; test: Cytotoxicity assay, sphere culture with LDL supplementation (ATP); type: cell-based, human; conditions: 1 µM; 7 days sphere culture; LDL 5 µg/mL
Procedure: U-87 cells were established with a tetracycline-inducible IDH1 R132H mutation expression system. The cells were cultured in the presence of doxycycline (1 µM), a tetracycline derivative, for 5 days to induce the IDH1 R132H mutation. After induction of the mutation, the cells were transferred to sphere culture medium (containing B-27 supplement, epidermal growth factor, cell proliferation factors, insulin, and low-density lipoprotein [LDL]), and cultured for 7 days under sphere-forming conditions after the addition of Compound 1 (1 µM). The LDL concentration in the medium was 5 µg/mL. After incubation, cellular ATP levels were quantified as an indicator of cell viability, and cell viability was calculated as the ratio relative to ATP levels under vehicle-only conditions. Using this approach, the cytotoxic effects of the present compound under LDL-supplemented conditions were compared between wild-type (doxycycline-) and mutant (doxycycline+) cells.

## CC1(C)Oc2cc(Cl)ccc2[C@@H]2OCC3(CCN(CCn4ccnc4)CC3)C[C@H]21 [Compound 1, (4'aR,10'bR)-8'-chloro-1-[2-(1H-imidazol-1-yl)ethyl]-5',5'-dimethyl-4'a,10'b-dihydro-2'H,4'H,5'H-spiro[piperidine-4,3'-pyrano[3,2-c][1]benzopyran] diphosphate]
BT142 cells
  cytotoxicity: marked cytotoxicity
B16 cells [1]
  antitumor effect in combination with ipilimumab: remarkably pronounced antitumor effect
B16 cells [2]
  tumor growth inhibition as monotherapy: statistically significant inhibition of tumor growth compared with the nivolumab-treated group
[3]; 180 mg QD and 240 mg QD
  stable disease: prolonged stable disease (SD) was observed
[3]; 360 mg QD and 480 mg daily (240 mg BID)
  discontinuation due to objective disease progression (RANO criteria): most patients discontinued administration of Compound 1 within two months
[3]; Dose Escalation Part, as of September 2023
  patients with preliminary antitumor activity (monotherapy): 4 patients
[3]; first patient with IDH-mutant WHO Grade III glioma, 20 mg QD
  tumor reduction (enhancing lesions, RANO criteria; reduction from baseline): 22%
[3]; patient with 22% tumor reduction
  time remained on study: 15 months
[3]; patient with 100% tumor reduction, as of September 2023
  time remained on study: 13 months
[3]; patient with 100% tumor reduction, cutoff April 21, 2024
  time remained on study: 20 months
[3]; patient with WHO grade III astrocytoma with IDH mutation, 120 mg, after more than one year of treatment
  response: complete response (CR)
[3]; second patient with IDH-mutant WHO Grade III glioma, 120 mg QD
  tumor reduction (enhancing lesions, RANO criteria; reduction from baseline): 100%
MC38 cells
  antitumor effect in combination with ipilimumab: remarkably pronounced antitumor effect
[4]
  antitumor effect in combination with bevacizumab: remarkably enhanced antitumor effect
[5]
  cytotoxicity in mutant versus wild-type cells: statistically-significantly stronger cytotoxicity in IDH1 R132H mutant cells compared with wild-type cells
